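Each compound was tested at five concentrations against cells in 96-well plates for 48 hours. Abbreviation: GI50, concentration required for 50% inhibition of growth. TGI denotes the concentration required for complete inhibition of growth.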
Columns and labels:
Experiment in all cases: DTP human tumour cell line panel, 48 h
[1] = tested on: HT29 colon
[2] = tested on: M14 melanoma
[3] = tested on: K-562 leukemia
[4] = tested on: BT-549 breast
[5] = tested on: SN12C renal
[6] = tested on: SK-OV-3 ovarian
[7] = tested on: HL-60(TB) leukemia
[8] = tested on: 786-0 renal
[9] = tested on: CAKI-1 renal
[10] = tested on: NCI-H460 lung

Row | SMILES | GI50 [1] [µM] | TGI [1] [µM] | GI50 [2] [µM] | TGI [2] [µM] | GI50 [3] [µM] | TGI [3] [µM] | GI50 [4] [µM] | TGI [4] [µM] | GI50 [5] [µM] | TGI [5] [µM] | GI50 [6] [µM] | TGI [6] [µM] | GI50 [7] [µM] | TGI [7] [µM] | GI50 [8] [µM] | TGI [8] [µM] | GI50 [9] [µM] | TGI [9] [µM] | TGI [10] [µM] | GI50 [10] [µM]
1 | CO/N=C(\C)c1cccc(Nc2cc(-c3ccccc3)nc3c(O)cccc23)c1 | 21.8 | 59.7 | 3.13 | 18.2 | 0.656 | > 100 | 15.1 | 55.1 | 5.04 | 24.5 | 8.62 | 34.5 | 23 | > 100 | 0.307 | 3.38 | 2.78 | 13.7 | – | –
2 | O=C1c2ccccc2C(=O)c2c(NCCNCCO)ccc(O)c21 | – | 10.2 | – | 15.8 | – | > 100 | – | – | – | 12.8 | – | 13.8 | – | 8.77 | – | 15.9 | – | 11.5 | 6.85 | –
3 | O=C1OCCC1C(O)C1c2ccccc2-c2ccccc21 (stereo not given) | – | > 100 | – | > 100 | – | > 100 | – | – | – | > 100 | – | > 100 | – | > 100 | – | > 100 | – | > 100 | > 100 | –
4 | COc1ccc2c(c1)C(=O)c1c-2c(Nc2ccc(C(C)=O)cc2)nc2ccccc12 | 43.7 | > 100 | 64.6 | > 100 | > 100 | > 100 | 17.7 | 78.3 | 33.4 | > 100 | – | – | > 100 | > 100 | 12.3 | 32.2 | > 100 | > 100 | > 100 | 85.1
5 | CC(=O)O[C@]1(C)OC(=O)[C@@H](C)N1[N+](=O)[O-] | – | > 100 | – | > 100 | – | > 100 | – | – | – | > 100 | – | > 100 | – | > 100 | – | > 100 | – | – | > 100 | –
6 | CC1CCN(CCCCCOc2ccc3oc4cc(Cl)ccc4c(=O)c3c2)CC1 | 1.72 | 6.2 | 1.15 | 2.63 | 1.58 | 6.09 | 6.54 | 13.1 | 6.49 | 13.1 | 8.45 | 15.8 | 2.81 | 10.5 | 6.29 | 12.7 | – | – | 13.9 | 6.63
7 | CC1(C)CCc2cc3c(cc2O1)OCC1c2cc4c(cc2OC31)OCO4 (stereo not given) | – | > 100 | – | > 100 | – | > 100 | – | – | – | > 100 | – | > 100 | – | > 100 | – | > 100 | – | > 100 | > 100 | –
8 | CCOC(=O)/C=C/c1cc2cc(-c3csc4ccccc34)ccc2[nH]1 | 3.39 | 11.6 | 5.42 | 22.8 | 2.09 | 10.3 | – | – | – | – | 15.2 | 28.7 | 2.43 | 6.57 | 11.3 | 26.9 | 3.13 | 15.2 | 31.3 | 15.5

Reference: PubChem BioAssay (NCI)
